“Also recorded” adds a separate entry of the source. Where two headings read alike, the source gives them in different places.
What was measured:
[1] = Capsaicin sensory deafferentation and feeding, Example 8; format: in vivo, rat; conditions: CCK-8 10 μg/kg, CP 93129 1, WIN 55,212-2 2, anandamide 2, SR141716A 3 mg/kg, i.p.
Experimental: Capsaicin was administered subcutaneously (12.5 mg/ml, Kaneko, et al., Am. J. Physiol., 275:G1056-G1062 (1998)) in rats anesthetized with ethyl ether. The total dose of capsaicin (125 mg/kg) was divided into three injections (25 mg/kg in the morning and 50 mg/kg in the afternoon of the first day, 50 mg/kg on the 2nd day). Control rats received vehicle injections. […] Water intake (in ml/4 hr) was: vehicle 13.6±1.4; capsaicin rats 24.0±1.9, P<0.01 (n=12).
The can was retired and intake was recorded.

[2] = Food intake in capsaicin-treated (sensory deafferented) rats, Example 2; format: in vivo, rat; conditions: OEA 10 mg per kg i.p.
Experimental: FAE were dissolved in dimethylsulphoxide (DMSO) and administered in 70% DMSO in sterile saline (acute treatments) Or 5% Tween 80/5% propylenglycol in sterile saline (subchronic treatments) (1 ml per kg, i.p.). Capsaicin was administered in 10% Tween 80/10% ethanol/80% saline; SR141716A, SR144528, CCK-8 and CP-93129 in 5% Tween 80/5% propylenglycol/90% saline (1 ml per kg, i.p.).

[3] = Acute feeding experiments in free-feeding mice (C57BL/6J, wild-type, PPARα-null); format: in vivo, mouse; conditions: for meal pattern analysis (eating latency, meal size, post-meal interval): C57BL/6J mice; for food intake in C57BL/6J mice: i.p., Wy-14643 40, GW7647 20, clofibrate 25-100, GW501516 1-10, ciglitazone 15 mg kg^−1; for feeding in PPARα-deficient mice: OEA 10, Wy-14643 40, d-fenfluramine 4 mg-kg^−1, CCK-8 25 μg-kg^−1, i.p.
Experimental: Acute experiments. Drugs or appropriate vehicles (saline, for CCK-8 and d-fenfluramine; dimethylsulfoxide/saline, 70/30, for all other agents; 4 ml-kg^−1; i.p.) were administered at 5:00-5:30 PM to free-feeding mice, which were habituated to the experimental setting.

Soleus muscle = test: [14C]oleate oxidation to CO2 in soleus muscle; format: cell-based, rat
Text: This example illustrates the effect of OEA on fat metabolism and methods for studying the same. Oleoylethanolamide (OEA) decreases body weight not only by suppressing appetite, but also by possibly enhancing body fat catabolism. The effects of OEA on fatty acid oxidation in major body-fat burning tissues (soleus muscle, liver, cultured cardiac myocytes and astrocytes) was examined. […] In addition, OEA induces a significant mobilization of triacylglycerol stores from primary white adipose tissue cells. Table 4 details the methods and effects of OEA on fatty acid oxidation in these cells. Structure-activity relationship experiments provide evidence that the effect of OEA on skeletal muscle fatty acid oxidation is specific (FIG. 8).

[4] = Acute food intake in 24-h food-deprived rats, i.p. dosing; format: in vivo, rat; conditions: 24-h food-deprived rats, i.p.
Experimental: Feeding experiments. Acute experiments. Food intake was measured in 24-h food-deprived rats (Navarro, et al., J. Neurochem., 67:1982-1991 (1996)), administering drugs 15 min before food presentation. Subchronic experiments. Ad libitum fed rats received vehicle injections for three days. On day four, the animals were divided in two equal groups and gave them daily injections of vehicle or OEA (5 mg per kg at 1900 h) for 7 consecutive days, while measuring body weight, food intake and water intake.
The effects of systemically administered OEA or an OEA-like compound or OEA-like modulator on food intake in rats can be assessed using a 24 h fast. […] To define the selectivity of this response, various OEA analogs were evaluated for their ability to produce hypophagia.

[5] = Food intake studies in food-deprived or partially satiated rats (i.p. or i.c.v.), Example 8; conditions: for food intake in partially satiated rats, systemic (i.p.) administration: 24 h food-deprived, allowed to eat 60 min before drug; for food intake in 24 h food-deprived rats, systemic (i.p.) administration: anandamide or WIN 55,212-2 0.1-2 mg/kg
Experimental: (§4) Drugs were administered by i.p. injection 15 min prior to food presentation in a volume of 1 ml/kg. For i.c.v. administration the obturator was removed from the guide cannula and an 8-mm injector (30-gauge stainless steel tubing) that was connected to 70 cm of calibrated polyethylene-10 tubing was lowered into the ventricle. The tubing was then raised until flow began and 5 μl of drug solution were infused over a 30-60 s period. The injector was left in the guide cannula for additional 30 s and then removed. The stylet was immediately replaced. Animals were tested 5 min after injections. The i.c.v. cannula placements were evaluated after each experiment by dye injection. Only those rats with proper i.c.v. placements were included in the data analysis.
(§5) The animals were then food-deprived for 24 h, with free access to water. 15 min after drug administration, the animals were returned to their home cage, where a can with a measured amount of food (usually 30-40 g) a bottle containing 250 ml of fresh water were placed. Food pellets and food spillage were weighed at 60,120 and 240 min after starting the test, and the amount of food eaten was recorded. At the end of the test, the amount of water consumed was also measured. For partial satiation of animals, 24 h food-deprived rats were allowed to eat from the can during 1 h. The can was retired and intake was recorded. 15 min after drug injections, the food was again presented, and the amount consumed was recorded hourly for the following 4 h.

Open field test = format: in vivo, rat
Experimental: Rats were habituated to the field for 10 min the day before testing. On the experimental day, the animals were placed in the center of the field and locomotor activity (number of lines crossed) and exploratory behavior (number of rearings and time spent in the center of the field) were scored for 5 min. All the experiments were performed 60 min after drug injections, and behavior was scored by trained observers blind to experimental conditions.

iNOS = test: Transrepression of iNOS expression in mouse jejunum; format: in vivo; conditions: jejunum of C57BL/6J mice; OEA or oleic acid 10, Wy-14643 30 mg kg^−1 i.p.
Experimental: (§1) Tissues were stored in RnaLater™ (Ambion), extracted total RNA with TRIzol™ (Invitrogen) and quantified it with Ribogreen™ (Molecular Probes). cDNA was synthesized by using SuperscriptII RNase H-reverse transcriptase (Invitrogen).
(§2) Reverse transcription of total RNA (2 μg) was performed using Oligo(dT)12-18 primer (0.2 μg) for 50 min at 42° C. Real Time Quantitative (RTQ) PCR was conducted using an ABI PRISM 7700 sequence detection system (Applied Biosystems). Primer/probe sets were designed using the Primer Express™ software and gene sequences available from the Genebank™ database. Primers and fluorogenic probes were synthesized by TIB (Adelphia). The primer/probe sequences for the mouse genes were:
(§3) RNA levels were normalized by using glyceraldehyde 3-phosphate dehydrogenase (GAPDH) as an internal standard. mRNA levels were measured by generating six-point serial standard curves using mouse total RNA. Estimates of relative mRNA abundance (in arbitrary units) were made by using the CT value (Schmittgen et al., 2000). Relative quantifications of RNAs of interest were made by using the 2^ΔCT formula, in which ΔCT was calculated by subtracting the CT value for GAPDH from the CT value for the gene of interest. This formula was validated for each primer/probe set by using six-point serial standard curves.

PPAR-α-regulated genes = test: Real time quantitative PCR of gene expression in mouse intestine and liver; format: in vivo; conditions: for expression of PPAR-α-regulated genes (PPAR-α, FAT/CD36, FATP1): jejunum of wild-type mice, OEA or oleic acid 10, Wy-14643 30 mg kg^−1 i.p.
Experimental: as §1, §2, §3

[6] = Food intake in vagotomized or capsaicin-treated rats, Example 3; format: in vivo, rat; conditions: for food intake 30 min / food intake 60 min / food intake 120 min / food intake 240 min: 24-h food-deprived, Wy-14643 40 mg kg^−1 i.p.; for food intake after vagotomy or capsaicin treatment: rats, OEA 10, Wy-14643 40 mg kg^−1 i.p.
human PPARα = target: T1, human PPARα (Homo sapiens, UniProt Q07869); test: GAL4 chimeric receptor transactivation assay in HeLa cells, PPARα; format: cell-based; conditions: for PPARα activation: HeLa transactivation assay
T1 construct: expressed in transfected cells; host or cells: HeLa (clonal reporter line HLR, stably transfected with pFA-PPARα)
T1 sequence (Q07869 239-466 limits assumed): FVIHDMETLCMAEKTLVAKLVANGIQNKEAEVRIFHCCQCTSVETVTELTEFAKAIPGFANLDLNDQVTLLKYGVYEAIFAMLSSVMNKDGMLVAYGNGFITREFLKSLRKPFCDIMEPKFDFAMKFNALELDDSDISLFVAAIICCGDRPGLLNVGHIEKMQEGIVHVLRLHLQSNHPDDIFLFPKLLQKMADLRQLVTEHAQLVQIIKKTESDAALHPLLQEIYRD
Experimental: Eighteen hours following transfection, the culture media was replaced with supplemented DMEM containing hygromycin (100 μg-ml^−1, Calbiochem). After 4 weeks in culture, the surviving clones were isolated and analyzed by luciferase assay. […] The cells were cultured in supplemented DMEM containing hygromycin and G418. For transactivation assays, cells were seeded in 6-well plates (50,000 cells per well) and incubated for 7 hours in supplemented DMEM containing hygromycin and G418, plus appropriate concentrations of test compounds. Dual-luciferase reporter assay system (Promega) and an MLX Microtiter® plate luminometer (Dynex) were used to determine luciferase activity in cell lysates.

[7] = rat, in vivo
Experimental: as §4, §5

## O=c1ccc2[nH]cc(C3=CCNCC3)c2[nH]1 [CP-93129]
[1]
  effect of capsaicin treatment on the drug's feeding response: not
[2]
  feeding response in capsaicin-treated rats: responded normally

## CC(C)(Sc1ccc(CCN(CCCCC2CCCCC2)C(=O)NC2CCCCC2)cc1)C(=O)O [GW7647, 2-(4-{2-[3-Cyclohexyl-1-(4-cyclohexyl-butyl)-ureido]-ethyl}-phenylsulfanyl)-2-methyl-propionic acid]
[3]
  meal pattern analysis (eating latency, meal size, post-meal interval): selective prolongation of eating latency
  food intake in C57BL/6J mice: inhibited food intake

## Cc1cc(SCc2sc(-c3ccc(C(F)(F)F)cc3)nc2C)ccc1OCC(=O)O [GW501516, [2-Methyl-4-[4-methyl-2-(4-trifluoromethyl-phenyl)-thiazol-5-ylmethylsulfanyl]-phenoxy}-acetic acid]
[3]
  food intake in C57BL/6J mice: did not affect feeding; also recorded: Lack of effect

## CCCCCCCCCCCCCCCC(=O)NCCO [Palmitoylethanolamide, palmitoylethanolamide]
Soleus muscle
  mimicry of the OEA effect on skeletal muscle fatty acid oxidation: only partially
[4]
  food intake (hypophagia): active but significantly less potent than OEA

## Cc1c(C(=O)NN2CCCCC2)nn(-c2ccc(Cl)cc2Cl)c1-c1ccc(Cl)cc1 [SR141716A, N-piperidino-5-(4-chlorophenyl)-1-(2,4-dichlorophenyl)-4-methylpyrazole-3-carboxamide]
[5]
  food intake in partially satiated rats, systemic (i.p.) administration: dose-dependent reduction of food intake
  food intake in 24 h food-deprived rats, systemic (i.p.) administration: dose-dependent reduction of food intake; also recorded: reduced food intake
  food intake after central (i.c.v.) administration: no effect; also recorded: did not affect food intake
Open field test; i.c.v. SR141716A 10 μg, i.c.v. vehicle 16.6±3.1
  rearing frequency in the open field: 4.9±1.1 number of events per 5 min
Open field test; i.p. SR141716A 3 mg/kg, i.p. vehicle 17.9±2.3
  rearing frequency in the open field: 9.4±2.0 number of events per 5 min
Open field test; irrespective of the administration route
  exploratory behavior in the open field: reduced exploratory behavior
[1]
  effect of capsaicin treatment on the drug's feeding response: loss and abolishes the reduction of food intake

## Cc1c(C(=O)c2cccc3ccccc23)c2cccc3c2n1[C@H](CN1CCOCC1)CO3 [WIN 55,212-2]
[5]; 10 μg i.c.v.
  motor effect at the highest central dose: motor impairment
[5]; 10 mg/kg i.p.
  immobility: profound immobility
[5]
  food intake in partially satiated rats, systemic (i.p.) administration: significant and prolonged hyperphagia; also recorded: promoted hyperphagia
  food intake in 24 h food-deprived rats, systemic (i.p.) administration: no effect
  food intake after central (i.c.v.) administration: no effect on feeding
[1]
  effect of capsaicin treatment on the drug's feeding response: loss of the hyperphagic effects; also recorded: did not produce hyperphagia

## Cc1cccc(Nc2cc(Cl)nc(SCC(=O)O)n2)c1C [Wy-14643]
iNOS
  iNOS expression: significantly decreased
PPAR-α-regulated genes
  expression of PPAR-α-regulated genes (PPAR-α, FAT/CD36, FATP1): mimicked the effects of OEA
PPAR-α-regulated genes; jejunum, OEA 10, Wy-14643 30 mg kg^−1 i.p.
  gene expression in mice deficient in PPAR-α: did not stimulate gene expression
[6]; capsaicin-treated rats
  food intake 30 min: 2.2 ± 1.2
  food intake 60 min: 3.7 ± 1.6
  food intake 120 min: 4.9 ± 1.5
  food intake 240 min: 7.8 ± 1.9
[6]; control rats
  food intake 30 min: 2.3 ± 1.3
  food intake 60 min: 3.6 ± 1.2
  food intake 120 min: 5.8 ± 1.3
  food intake 240 min: 6.4 ± 1.8
[6]
  food intake after vagotomy or capsaicin treatment: prevented the hypophagic effects
[3]
  meal pattern analysis (eating latency, meal size, post-meal interval): selective prolongation of eating latency
  feeding in PPARα-deficient mice: did not respond
  food intake in C57BL/6J mice: inhibited food intake

## CCCCC/C=C\C/C=C\C/C=C\C/C=C\CCCC(=O)NCCO [anandamide, arachidonylethanolamide]
[5]
  food intake in partially satiated rats, systemic (i.p.) administration: significant and prolonged hyperphagia
  food intake in 24 h food-deprived rats, systemic (i.p.) administration: no effect
  food intake after central (i.c.v.) administration: no effect on feeding
[5]; listed as Anandamide
  food intake in partially satiated rats, systemic (i.p.) administration: elicited hyperphagia
  food intake after central (i.c.v.) administration: no effect
Soleus muscle
  mimicry of the OEA effect on skeletal muscle fatty acid oxidation: not
Human PPARα
  PPARα activation: ineffective
[1]
  effect of capsaicin treatment on the drug's feeding response: loss of the hyperphagic effects
[7]
  motor effect at the highest central dose: motor impairment
[4]
  food intake (hypophagia): no effect

## CCOC(=O)C(C)(C)Oc1ccc(Cl)cc1 [clofibrate, 2-(4-chlorophenoxy)-2-methylpropanoic acid, ethyl ester]
[3]
  food intake in C57BL/6J mice: did not

## CCN[C@@H](C)Cc1cccc(C(F)(F)F)c1 [d-fenfluramine]
[6]
  food intake after vagotomy or capsaicin treatment: not
[3]
  feeding in PPARα-deficient mice: responded normally

## CCCCCCCCCCCCCC(=O)NCCO [myristylethanolamide]
Human PPARα
  PPARα activation: ineffective

## CCCCCCCC/C=C\CCCCCCCC(=O)O [oleic acid]
iNOS
  iNOS expression: ineffective
Soleus muscle
  mimicry of the OEA effect on skeletal muscle fatty acid oxidation: not
Human PPARα
  EC50: 10.3 ± 0.21 µM
PPAR-α-regulated genes
  expression of PPAR-α-regulated genes (PPAR-α, FAT/CD36, FATP1): not
[4]
  food intake (hypophagia): no effect

## CCCCCCCCCCCCCCCCCC(=O)NCCO [stearylethanolamide]
Human PPARα
  PPARα activation: did not elicit a response

## CCK-8
[1]
  effect of capsaicin treatment on the drug's feeding response: abolished the anorexic response; also recorded: abolished the anorexic effect
[3]
  feeding in PPARα-deficient mice: responded normally
[2]
  feeding response in capsaicin-treated rats: failed to respond
